The target of this experiment is Adenosylhomocysteinase (Homo sapiens) (UniProt P23526). The experiment in a line: Enzyme catalytic rate kinetic constant for S-adenosyl-L-homocysteine hydrolase; Not a substrate.

Our source for the k cat values is ChEMBL document CHEMBL1136535, “Unexpected inhibition of S-adenosyl-L-homocysteine hydrolase by a guanosine nucleoside” (Bioorg Med Chem Lett, 2003).

Chain of Adenosylhomocysteinase (Homo sapiens) (P23526 2-432 limits assumed): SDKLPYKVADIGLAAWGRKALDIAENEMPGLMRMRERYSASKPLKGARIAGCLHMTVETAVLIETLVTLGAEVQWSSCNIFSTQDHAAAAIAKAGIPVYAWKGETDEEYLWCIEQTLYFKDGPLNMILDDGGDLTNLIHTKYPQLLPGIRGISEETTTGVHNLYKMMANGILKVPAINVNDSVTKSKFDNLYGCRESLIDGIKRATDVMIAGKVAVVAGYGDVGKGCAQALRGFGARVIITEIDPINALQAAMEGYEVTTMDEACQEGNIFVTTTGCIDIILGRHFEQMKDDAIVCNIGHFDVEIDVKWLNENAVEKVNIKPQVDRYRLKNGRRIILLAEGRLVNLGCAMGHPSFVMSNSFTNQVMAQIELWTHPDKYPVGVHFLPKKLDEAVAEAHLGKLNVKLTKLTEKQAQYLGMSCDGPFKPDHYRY

As for `Nc1nc(O)cc(-c2cncn2C2O[C@H](CO)[C@@H](O)[C@H]2O)n1` (stereo partly specified), the k cat entry is “Not a substrate”.
